Laboratory results from patent publication US20250084084A1, “Crystalline form of (2R)-2-(5-fluoro-2-methoxypyridin-4-yl)-1-[(2S)-7-methyl-6-(pyrimidin-2-yl)-3,4-dihydro-1H-spiro[1,8-naphthyridine-2,3-pyrrolidin]-1-yl]propan-1-one” (Pfizer Inc., priority 2020, published 2025).

The molecules below were run against human Melanocortin-4 receptor (MC4R) (Homo sapiens (Human), UniProt P32245) (assay: Functional in vitro MC4R antagonist potency assay (cAMP HTRF in CHO cells, αMSH EC80 stimulation)). Conditions: cAMP HTRF in CHO cells expressing human MC4R, 200 nM αMSH (EC80); Kb by Leff-Dougall equation; geometric mean.
Chain of human Melanocortin-4 receptor (MC4R) (P32245 whole entry): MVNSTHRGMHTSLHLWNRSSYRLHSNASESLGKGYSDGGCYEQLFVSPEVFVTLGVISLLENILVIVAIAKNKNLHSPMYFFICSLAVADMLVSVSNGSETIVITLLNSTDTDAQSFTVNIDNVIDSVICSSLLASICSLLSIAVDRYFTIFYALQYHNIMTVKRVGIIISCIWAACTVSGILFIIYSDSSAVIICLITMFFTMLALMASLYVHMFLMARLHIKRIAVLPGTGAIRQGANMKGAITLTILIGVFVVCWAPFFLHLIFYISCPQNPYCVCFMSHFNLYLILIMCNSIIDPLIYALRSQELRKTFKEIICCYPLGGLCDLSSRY
Format: cell-based
Protocol: The functional in vitro antagonist potency for test compounds was determined by monitoring intracellular cyclic adenosine monophosphate (cAMP) levels in Chinese hamster ovary (CHO—) cells stably expressing the human Melanocortin-4 receptor (MC4R). […] The activated Ga subunit can couple to downstream effectors to regulate the levels of second messengers or cAMP within the cell. Thereby, determination of intracellular cAMP levels allows for pharmacological characterization. Intracellular cAMP levels are quantitated using a homogenous assay utilizing the Homogeneous Time-Resolved Fluorescence (HTRF) technology from CisBio. The method is a competitive immunoassay between native cAMP produced by cells and the cAMP labelled with the acceptor dye, d2. The two entities then compete for binding to a monoclonal anti-cAMP antibody labeled with cryptate. The specific signal is inversely proportional to the concentration of cAMP in the cells.
Test compounds were solubilized to 30 mM in 100% dimethyl sulfoxide (DMSO) and stored. […]
(95% O2: 5% CO2) overnight, with micro-clime lids (Labcyte, Cat No. LLS-0310). […] Intracellular cAMP levels were quantified as per Cisbio's protocol (5 uL of D2 and then 5 uL Cryptate, incubated for 1-2 hours at room temperature).
Data expressed as nM cAMP were then normalized to control wells using Activity Base (IDBS). […]

Row | Kb [nM] | Structure (SMILES)
1 | > 92 | COc1cc([C@@H](C)C(=O)N2CC[C@@]3(CCc4cc(Cl)c(C)nc4N3)C2)c(F)cn1 (single isomer, unassigned) [Example 103]

Same assay, conditions: read-out: Kb (nM) Antagonist geometric

Row | Structure (SMILES) | Kb [nM]
2 | COc1cc([C@@H](C)C(=O)N2CC[C@@]3(CCc4cc(-c5cnccn5)c(C)nc4N3)C2)c(F)cn1 [Example 142, (2R)-2-(5-fluoro-2-methoxypyridin-4-yl)-1-[(2S)-7-methyl-6-(pyrazin-2-yl)-3,4-dihydro-1H-spiro[1,8-naphthyridine-2,3′-pyrrolidin]-1′-yl]propan-1-one] | 3.6

Each molecule was assayed against α-melanocyte-stimulating hormone receptor (hMC4R) (Homo sapiens (Human), UniProt P32245) (assay: In vitro binding affinity assay using hMC4R (radioligand competition binding, [125I]-(Nle4, D-Phe7)-α-MSH)). Conditions: geometric mean, read-out: Ki (nM) geometric.
Chain of α-melanocyte-stimulating hormone receptor (hMC4R) (P32245 whole entry): as above
In short: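 Membranes from CHO cells stably expressing hMC4R (2 μg/well) incubated 2 h RT with [125I]-NDP-α-MSH and compound (300 nM-0.01 nM, 1% DMSO); 2 μM α-MSH defined nonspecific binding. Filtration and scintillation counting; Ki from IC50 via Cheng-Prusoff.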

Row | Ki [nM] | Structure (SMILES)
3 | 2.8 | COc1cc([C@@H](C)C(=O)N2CC[C@@]3(CCc4cc(-c5nc(C)c(C)s5)c(C)nc4N3)C2)c(F)cn1 [Example 163, (2R)-1-[(2S)-6-(4,5-dimethyl-1,3-thiazol-2-yl)-7-methyl-3,4-dihydro-1H-spiro[1,8-naphthyridine-2,3′-pyrrolidin]-1′-yl]-2-(5-fluoro-2-methoxypyridin-4-yl)propan-1-one]
4 | 220 | COc1ncc(F)c([C@@H](C)C(=O)N2CC[C@@]3(CCc4cc(-c5nnn(C)n5)c(C)nc4N3)C2)n1 (single isomer, unassigned) [Example 134]
5 | 3.3 | COc1cc([C@@H](C)C(=O)N2CC[C@@]3(CCc4cc(-c5cnc(C)s5)c(C)nc4N3)C2)c(F)cn1 [Example 153, (2R)-2-(5-fluoro-2-methoxypyridin-4-yl)-1-[(2S)-7-methyl-6-(2-methyl-1,3-thiazol-5-yl)-3,4-dihydro-1H-spiro[1,8-naphthyridine-2,3′-pyrrolidin]-1′-yl]propan-1-one]
6 | 200 | COc1cc([C@@H](C)C(=O)N2CC[C@@]3(CCc4cc(-c5cc6onc(C)c6cc5C)c(C)nc4N3)C2)c(F)cn1 [Example 160, (2R)-1-[(2S)-6-(3,5-dimethyl-1,2-benzoxazol-6-yl)-7-methyl-3,4-dihydro-1H-spiro[1,8-naphthyridine-2,3′-pyrrolidin]-1′-yl]-2-(5-fluoro-2-methoxypyridin-4-yl)propan-1-one]
7 | 8.2 | COc1cc([C@@H](C)C(=O)N2CC[C@@]3(CCc4cc(-c5cc(C)ccn5)c(C)nc4N3)C2)c(F)cn1 [Example 166, (2R)-2-(5-fluoro-2-methoxypyridin-4-yl)-1-[(2S)-7-methyl-6-(4-methylpyridin-2-yl)-3,4-dihydro-1H-spiro[1,8-naphthyridine-2,3′-pyrrolidin]-1′-yl]propan-1-one]
8 | 5.8 | COc1cc([C@@H](C)C(=O)N2CC[C@@]3(CCc4cc(C5CCOCC5)c(C)nc4N3)C2)c(F)cn1 [Example 131, (2R)-2-(5-fluoro-2-methoxypyridin-4-yl)-1-[(2S)-7-methyl-6-(oxan-4-yl)-3,4-dihydro-1H-spiro[1,8-naphthyridine-2,3′-pyrrolidin]-1′-yl]propan-1-one]
9 | 3.2 | COc1cc([C@@H](C)C(=O)N2CC[C@@]3(CCc4cc(-c5cnc(C)cn5)c(C)nc4N3)C2)c(F)cn1 [Example 158, (2R)-2-(5-fluoro-2-methoxypyridin-4-yl)-1-[(2S)-7-methyl-6-(5-methylpyrazin-2-yl)-3,4-dihydro-1H-spiro[1,8-naphthyridine-2,3′-pyrrolidin]-1′-yl]propan-1-one]
10 | 0.72 | COc1cc([C@@H](C)C(=O)N2CC[C@@]3(CCc4cc(-c5cnn6cccnc56)c(C)nc4N3)C2)c(F)cn1 [Example 154, (2R)-2-(5-fluoro-2-methoxypyridin-4-yl)-1-[(2S)-7-methyl-6-(pyrazolo[1,5-a]pyrimidin-3-yl)-3,4-dihydro-1H-spiro[1,8-naphthyridine-2,3′-pyrrolidin]-1′-yl]propan-1-one]
11 | 21 | COc1cc([C@@H](C)C(=O)N2CC[C@@]3(CCc4cc(-c5ccc(OC(F)(F)F)cn5)c(C)nc4N3)C2)c(F)cn1 [Example 180, (2R)-2-(5-fluoro-2-methoxypyridin-4-yl)-1-{(2S)-7-methyl-6-[5-(trifluoromethoxy)pyridin-2-yl]-3,4-dihydro-1H-spiro[1,8-naphthyridine-2,3′-pyrrolidin]-1′-yl}propan-1-one]

Row | Structure (SMILES) | Ki [nM]
12 | COc1cc([C@@H](C)C(=O)N2CC[C@@]3(CCc4cc(-c5cnccn5)c(C)nc4N3)C2)c(F)cn1 [Example 142, (2R)-2-(5-fluoro-2-methoxypyridin-4-yl)-1-[(2S)-7-methyl-6-(pyrazin-2-yl)-3,4-dihydro-1H-spiro[1,8-naphthyridine-2,3′-pyrrolidin]-1′-yl]propan-1-one] | 1.8

Same assay, conditions: geometric mean, read-out: Ki (nM) geometric mean

Row | Ki [nM] | Structure (SMILES)
13 | 2 | COc1cc([C@@H](C)C(=O)N2CC[C@@]3(CCc4cc(-c5ncc(Br)cn5)c(C)nc4N3)C2)c(F)cn1 [Example 22, (2R)-1-[(2S)-6-(5-bromopyrimidin-2-yl)-7-methyl-3,4-dihydro-1H-spiro[1,8-naphthyridine-2,3′-pyrrolidin]-1′-yl]-2-(5-fluoro-2-methoxypyridin-4-yl)propan-1-one]
14 | 2.5 | COc1cnc(-c2cc3c(nc2C)N[C@@]2(CC3)CCN(C(=O)[C@H](C)c3cc(OC)ncc3F)C2)nc1 [Example 67, (2R)-2-(5-fluoro-2-methoxypyridin-4-yl)-1-[(2S)-6-(5-methoxypyrimidin-2-yl)-7-methyl-3,4-dihydro-1H-spiro[1,8-naphthyridine-2,3′-pyrrolidin]-1′-yl]propan-1-one]
15 | 40 | COc1cc([C@@H](C)C(=O)N2CC[C@@]3(CCc4cc(-c5cnc(C6CC6)cn5)c(C)nc4N3)C2)c(F)cn1 [Example 70, (2R)-1-[(2S)-6-(5-cyclopropylpyrazin-2-yl)-7-methyl-3,4-dihydro-1H-spiro[1,8-naphthyridine-2,3′-pyrrolidin]-1′-yl]-2-(5-fluoro-2-methoxypyridin-4-yl)propan-1-one]
16 | 5.1 | COc1cc([C@@H](C)C(=O)N2CC[C@@]3(CCc4cc(-c5nc(C(F)(F)F)ccc5F)c(C)nc4N3)C2)c(F)cn1 [Example 69, (2R)-2-(5-fluoro-2-methoxypyridin-4-yl)-1-{(2S)-6-[3-fluoro-6-(trifluoromethyl)pyridin-2-yl]-7-methyl-3,4-dihydro-1H-spiro[1,8-naphthyridine-2,3′-pyrrolidin]-1′-yl}propan-1-one]
